In PubChem BioAssay (NCI):
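Following 48 hours of exposure in 96-well plates, responses at five concentrations were used to interpolate endpoints linearly. GI50 marks 50% less growth. At the TGI there is no net growth.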

How the values were obtained:
Assay in all cases: NCI-60 cell line screen, 48 h
OVCAR-4 ovarian = test system: OVCAR-4 ovarian
SN12C renal = test system: SN12C renal
OVCAR-8 ovarian = test system: OVCAR-8 ovarian
RXF 393 renal = test system: RXF 393 renal
OVCAR-3 ovarian = test system: OVCAR-3 ovarian
HCC-2998 colon = test system: HCC-2998 colon
HT29 colon = test system: HT29 colon
K-562 leukemia = test system: K-562 leukemia
NCI-H460 lung = test system: NCI-H460 lung
SK-MEL-5 melanoma = test system: SK-MEL-5 melanoma
786-0 renal = test system: 786-0 renal
MALME-3M melanoma = test system: MALME-3M melanoma
UACC-257 melanoma = test system: UACC-257 melanoma
OVCAR-5 ovarian = test system: OVCAR-5 ovarian
UO-31 renal = test system: UO-31 renal
CCRF-CEM leukemia = test system: CCRF-CEM leukemia
T-47D breast = test system: T-47D breast
NCI-H522 lung = test system: NCI-H522 lung
MCF7 breast = test system: MCF7 breast
PC-3 prostate = test system: PC-3 prostate
A498 renal = test system: A498 renal
ACHN renal = test system: ACHN renal
HCT-116 colon = test system: HCT-116 colon
NCI-H226 lung = test system: NCI-H226 lung
MDA-MB-231 breast = test system: MDA-MB-231 breast
SR leukemia = test system: SR leukemia
COLO 205 colon = test system: COLO 205 colon
SK-MEL-28 melanoma = test system: SK-MEL-28 melanoma
SK-MEL-2 melanoma = test system: SK-MEL-2 melanoma
NCI/ADR-RES ovarian = test system: NCI/ADR-RES ovarian
U251 CNS = test system: U251 CNS
SNB-19 CNS = test system: SNB-19 CNS
UACC-62 melanoma = test system: UACC-62 melanoma
HS 578T breast = test system: HS 578T breast
RPMI-8226 leukemia = test system: RPMI-8226 leukemia
A549 NSCLC = test system: A549 NSCLC
KM12 colon = test system: KM12 colon
HOP-92 NSCLC = test system: HOP-92 NSCLC
TK-10 renal = test system: TK-10 renal
SW-620 colon = test system: SW-620 colon
IGROV1 ovarian = test system: IGROV1 ovarian
MDA-MB-435 = test system: MDA-MB-435
CAKI-1 renal = test system: CAKI-1 renal
SF-295 CNS = test system: SF-295 CNS
DU-145 prostate = test system: DU-145 prostate
BT-549 breast = test system: BT-549 breast
SF-539 CNS = test system: SF-539 CNS
SK-OV-3 ovarian = test system: SK-OV-3 ovarian
HOP-62 NSCLC = test system: HOP-62 NSCLC
HCT-15 colon = test system: HCT-15 colon
M14 melanoma = test system: M14 melanoma
LOX IMVI melanoma = test system: LOX IMVI melanoma
NCI-H23 lung = test system: NCI-H23 lung
HL-60(TB) leukemia = test system: HL-60(TB) leukemia
MOLT-4 leukemia = test system: MOLT-4 leukemia
SNB-75 CNS = test system: SNB-75 CNS
SF-268 CNS = test system: SF-268 CNS

Compound: COc1cc(OC)c(/C=C/c2cc[n+](C)c3ccccc23)c(OC)c1
- GI50 (OVCAR-4 ovarian): 2.51 µM
- TGI (OVCAR-4 ovarian): 23 µM
- GI50 (SN12C renal): 1.05 µM
- TGI (SN12C renal): 13 µM
- GI50 (OVCAR-8 ovarian): 1.62 µM
- TGI (OVCAR-8 ovarian): 10.2 µM
- GI50 (RXF 393 renal): 2.66 µM
- TGI (RXF 393 renal): 19.2 µM
- GI50 (OVCAR-3 ovarian): 1.68 µM
- TGI (OVCAR-3 ovarian): 7.35 µM
- GI50 (HCC-2998 colon): 2.46 µM
- TGI (HCC-2998 colon): 13.9 µM
- GI50 (HT29 colon): 1.94 µM
- TGI (HT29 colon): 7.28 µM
- GI50 (K-562 leukemia): 1 µM
- TGI (K-562 leukemia): > 100 µM
- GI50 (NCI-H460 lung): 0.98 µM
- TGI (NCI-H460 lung): 5.85 µM
- GI50 (SK-MEL-5 melanoma): 0.928 µM
- TGI (SK-MEL-5 melanoma): 2.39 µM
- GI50 (786-0 renal): 4.4 µM
- TGI (786-0 renal): 22.3 µM
- GI50 (MALME-3M melanoma): 1.87 µM
- TGI (MALME-3M melanoma): 8.04 µM
- GI50 (UACC-257 melanoma): 1.86 µM
- TGI (UACC-257 melanoma): 5.98 µM
- GI50 (OVCAR-5 ovarian): 3.66 µM
- TGI (OVCAR-5 ovarian): 38.7 µM
- GI50 (UO-31 renal): 17.3 µM
- TGI (UO-31 renal): > 100 µM
- GI50 (CCRF-CEM leukemia): 2.71 µM
- TGI (CCRF-CEM leukemia): > 100 µM
- GI50 (T-47D breast): 1.72 µM
- TGI (T-47D breast): 33.7 µM
- GI50 (NCI-H522 lung): 1.61 µM
- TGI (NCI-H522 lung): 6.34 µM
- GI50 (MCF7 breast): 2.7 µM
- TGI (MCF7 breast): > 100 µM
- GI50 (PC-3 prostate): 1.68 µM
- TGI (PC-3 prostate): 12.6 µM
- GI50 (A498 renal): 1.24 µM
- TGI (A498 renal): 6.04 µM
- GI50 (ACHN renal): 13.5 µM
- TGI (ACHN renal): > 100 µM
- GI50 (HCT-116 colon): 1.27 µM
- TGI (HCT-116 colon): 33.7 µM
- GI50 (NCI-H226 lung): 1.99 µM
- TGI (NCI-H226 lung): 17.3 µM
- GI50 (MDA-MB-231 breast): 2.77 µM
- TGI (MDA-MB-231 breast): 12.8 µM
- GI50 (SR leukemia): 1.92 µM
- TGI (SR leukemia): > 100 µM
- GI50 (COLO 205 colon): 1.23 µM
- TGI (COLO 205 colon): 2.9 µM
- GI50 (SK-MEL-28 melanoma): 2.3 µM
- TGI (SK-MEL-28 melanoma): 9.77 µM
- GI50 (SK-MEL-2 melanoma): 2.66 µM
- TGI (SK-MEL-2 melanoma): 6.32 µM
- GI50 (NCI/ADR-RES ovarian): > 100 µM
- TGI (NCI/ADR-RES ovarian): > 100 µM
- GI50 (U251 CNS): 0.536 µM
- TGI (U251 CNS): 11.7 µM
- GI50 (SNB-19 CNS): 0.795 µM
- TGI (SNB-19 CNS): 15.4 µM
- GI50 (UACC-62 melanoma): 1.58 µM
- TGI (UACC-62 melanoma): 5.66 µM
- GI50 (HS 578T breast): 1.48 µM
- TGI (HS 578T breast): 12.4 µM
- GI50 (RPMI-8226 leukemia): 0.648 µM
- TGI (RPMI-8226 leukemia): 11.6 µM
- GI50 (A549 NSCLC): 1.8 µM
- TGI (A549 NSCLC): 54.6 µM
- GI50 (KM12 colon): 1.41 µM
- TGI (KM12 colon): 3.95 µM
- GI50 (HOP-92 NSCLC): 1.42 µM
- TGI (HOP-92 NSCLC): 4.7 µM
- GI50 (TK-10 renal): 3.54 µM
- TGI (TK-10 renal): 18.1 µM
- GI50 (SW-620 colon): 2.56 µM
- TGI (SW-620 colon): 16.9 µM
- GI50 (IGROV1 ovarian): 3.62 µM
- TGI (IGROV1 ovarian): 25.9 µM
- GI50 (MDA-MB-435): 1.83 µM
- TGI (MDA-MB-435): 7.37 µM
- GI50 (CAKI-1 renal): 18.3 µM
- TGI (CAKI-1 renal): > 100 µM
- GI50 (SF-295 CNS): 0.702 µM
- TGI (SF-295 CNS): 6.48 µM
- GI50 (DU-145 prostate): 2.47 µM
- TGI (DU-145 prostate): 15.5 µM
- GI50 (BT-549 breast): 1.79 µM
- TGI (BT-549 breast): 13.6 µM
- GI50 (SF-539 CNS): 2.14 µM
- TGI (SF-539 CNS): 10.9 µM
- GI50 (SK-OV-3 ovarian): 3.32 µM
- TGI (SK-OV-3 ovarian): 17.5 µM
- GI50 (HOP-62 NSCLC): 3.17 µM
- TGI (HOP-62 NSCLC): 20.8 µM
- GI50 (HCT-15 colon): 23.3 µM
- TGI (HCT-15 colon): > 100 µM
- GI50 (M14 melanoma): 2.88 µM
- TGI (M14 melanoma): 15.8 µM
- GI50 (LOX IMVI melanoma): 1.29 µM
- TGI (LOX IMVI melanoma): 3.15 µM
- GI50 (NCI-H23 lung): 1.74 µM
- TGI (NCI-H23 lung): 17.3 µM
- GI50 (HL-60(TB) leukemia): 1.33 µM
- TGI (HL-60(TB) leukemia): 8.58 µM
- GI50 (MOLT-4 leukemia): 3.19 µM
- TGI (MOLT-4 leukemia): 33.9 µM
- GI50 (SNB-75 CNS): 0.932 µM
- TGI (SNB-75 CNS): 11.2 µM
- GI50 (SF-268 CNS): 0.691 µM
- TGI (SF-268 CNS): 12.8 µM
